Values of other authors, collected in US20110105449A1, “DRY POWDER FORMULATIONS COMPRISING ASCORBIC ACID DERIVATES” (ASTRAZENECA R&D, priority 2007, published 2011).
Values after ≈ are worked out from the molar mass of the structure shown.

Conditions: at 25° C.

- water solubility: 16 µg/mL (≈ 37.2 µM)
SMILES: CCCC1O[C@@H]2C[C@H]3[C@@H]4CCC5=CC(=O)C=C[C@]5(C)[C@H]4[C@@H](O)C[C@]3(C)[C@]2(C(=O)CO)O1 (stereo partly shown) [Budesonide, budesonide]
